{"source": "paper PMC8842277", "about": "“Highly Antiproliferative Latonduine and Indolo[2,3-c]quinoline Derivatives: Complex Formation with Copper(II) Markedly Changes the Kinase Inhibitory Profile” (Journal of Medicinal Chemistry, 2022)", "key": {"[1]": {"test_system": "HCT-116 colon carcinoma cells", "test": "MTT assay, 96 h", "assay_type": "cell-based, human", "excerpt": "(§1) The oncosuppressor protein p53 controls the cellular response to DNA strand breaks induced by cytotoxic drugs or by radiation.[58] The p53 protein may enhance cell chemosensitivity by promoting apoptosis via different mechanisms including activation of proapoptotic genes such as bax and repression of antiapoptotic genes such as bcl-2 or in contrast increase chemoresistance by promoting p21-mediated and p21-independent growth arrest and DNA repair and by activation of antiapoptotic genes such as bcl-x. There is strong evidence that the modulation of drug sensitivity by p53 may be both drug- and cell type-specific.[59] […] Accordingly, essential differences in chemosensitivity were observed between cells with wild-type p53 gene and cells with knocked out p53 gene by homologous recombination.[60]\n(§2) Human colonic adenocarcinoma cell lines Colo 205 doxorubicin-sensitive (ATCC-CCL-222) and Colo 320/MDR-LRP multidrug resistant over-expressing ABCB1 (MDR1)-LRP (ATCC-CCL-220.1) were purchased from LGC Promochem, Teddington, UK. The cells were cultured in an RPMI 1640 medium supplemented with 10% heat-inactivated fetal bovine serum, 2 mM L-glutamine, 1 mM Na-pyruvate, and 10 mM HEPES. The semi-adherent human colon cancer cells were detached with Trypsin-Versene (EDTA) solution for 5 min at 37 °C. An MRC-5 human embryonal lung fibroblast cell line (ATCC CCL-171) was purchased from LGC Promochem, Teddington, UK. The cells were cultured in Eagle’s minimal essential medium (EMEM, containing 4.5 g L^–1 glucose) supplemented with a non-essential amino acid mixture, a selection of vitamins, and 10% heat-inactivated fetal bovine serum. The HCT-116 colon carcinoma cells and isogenic p53-knock-out subline were a gift of Prof. Bert Vogelstein from The Johns Hopkins Oncology Center. Cells were cultured in McCoy’s 5A medium supplemented with 10% heat-inactivated fetal bovine serum and 4 mM L-glutamine. All cell lines were incubated at 37 °C, in a 5% CO2, 95% air atmosphere.\n(§3) MRC-5 non-cancerous human embryonic lung fibroblast and human colonic adeno-carcinoma cell lines (doxorubicin-sensitive Colo 205 and multidrug resistant Colo 320 colonic adenocarcinoma cells) were used to determine the effect of compounds on cell growth. The effects of increasing concentrations of compounds on cell growth were tested in 96-well flat-bottomed microtiter plates. The compounds were dissolved in DMSO and stock solutions of 10 mM were prepared. These were further diluted in the appropriate cell culture medium by twofold serial dilution starting from 100 or 10 μM for the compounds. The adherent human embryonal lung fibroblast cells were cultured in 96-well flat-bottomed microtiter plates using EMEM supplemented with 10% heat-inactivated fetal bovine serum. The density of the cells was adjusted to 1 × 10^4 cells in 100 μL per well, the cells were seeded for 24 h at 37 °C, 5% CO2, then the medium was removed from the plates containing the cells, and the dilutions of compounds previously made in a separate plate were added to the cells in 200 μL. In the case of the colonic adenocarcinoma cells, the twofold serial dilutions of compounds were prepared in 100 μL of RPMI 1640, horizontally. The semi-adherent colonic adenocarcinoma cells were treated with Trypsin-Versene (EDTA) solution. They were adjusted to a density of 1 × 10^4 cells in 100 μL of RPMI 1640 medium and were added to each well, with the exception of the medium control wells. […]"}, "[2]": {"test_system": "HCT-116 isogenic p53-knock-out subline", "test": "MTT assay, 96 h", "assay_type": "cell-based, human", "details": "read-out: IC50 HCT-116p53ko, mean", "excerpt": "as §1, §2, §3"}, "Colo320 cells": {"test_system": "Colo320 cells", "test": "Apoptosis assay, Annexin-V-FITC/PI flow cytometry", "details": "3 h induction", "description": "An apoptosis assay was performed by flow cytometry via the analysis of multidrug-resistant Colo320 cells stained with Annexin-V-FITC and propidium iodide (PI).\nColo320 cells were treated at the indicated concentration of the compounds. The dual parametric dot plots combining Annexin-V (FL1) and PI (FL3) fluorescence show the viable cell population in the lower left quadrant Annexin-V–/PI– (Q4), the early apoptotic cells in the lower right quadrant Annexin-V+/PI– (Q3), and the late apoptotic and necrotic cells in the upper right quadrant Annexin-V+/PI+ (Q2).\nThe assay was carried out for selected compounds using an Annexin V-FITC Apoptosis Detection Kit (cat. no. APOAF-50TST) from Sigma according to the manufacturer’s instructions. The concentration of the Colo320 cell suspension was adjusted to approximately 0.5 × 10^6 cells/mL in an RPMI 1640 medium, and the cell suspension was distributed in 1 mL of aliquots into a 24-well plate and then incubated overnight at 37 °C and 5% CO2. On the following day, the medium was removed and replaced by 1 mL of RPMI medium containing the compounds except the control samples. […] After the incubation period, the samples were washed with PBS and fresh RPMI 1640 medium was added to the samples. The cells were incubated overnight at 37 °C and 5% CO2. The next day, 200 μL of 0.25% Trypsin (Trypsin-Versen) was added to the samples until cells appeared detached followed by the addition of 400 μL of RPMI 1640 medium supplemented with 10% bovine serum. The cells were collected in Eppendorf tubes and centrifuged at 2000g for 2 min. The harvested cells were resuspended in fresh serum-free RPMI 1640 culture medium. After this step, the apoptosis assay was carried out according to the instructions of the manufacturer. The fluorescence was analyzed immediately using a ParTec CyFlow flow cytometer (Partec GmbH, Münster, Germany).\n• Apoptosis and DNA binding studies […]"}}}
{"smiles": "N.N.[Cl][Pt][Cl]", "note": "[cisplatin, reference compound]", "values": [{"measurement": "IC50", "setting": "[1]", "result": 780, "unit": "nM"}, {"measurement": "IC50", "setting": "[2]", "result": 1700, "unit": "nM"}, {"measurement": "Cell death % Q1", "setting": "Colo320 cells; 15 µM", "result": 1.64, "unit": "%"}, {"measurement": "Early apoptosis % Q3", "setting": "Colo320 cells; 15 µM", "result": 1.68, "unit": "%"}, {"measurement": "Late apoptosis and necrosis % Q2", "setting": "Colo320 cells; 15 µM", "result": 2.24, "unit": "%"}, {"measurement": "Cell death % Q1", "setting": "Colo320 cells; 30 µM", "result": 0.79, "unit": "%"}, {"measurement": "Early apoptosis % Q3", "setting": "Colo320 cells; 30 µM", "result": 4.90, "unit": "%"}, {"measurement": "Late apoptosis and necrosis % Q2", "setting": "Colo320 cells; 30 µM", "result": 4.07, "unit": "%"}]}
